# Source: patent US20090304692A1, “TRIAZINE COMPOUNDS AS PI3 KINASE AND MTOR INHIBITORS” (Wyeth, priority 2008, published 2009)
# Like-named read-outs stand apart in the source and are kept apart here.
# Key:
# Human mTOR (FLAG-TOR) = Human mTOR (FLAG-TOR) (Homo sapiens, UniProt P42345); test: mTOR kinase assay (DELFIA format, purified enzyme); format: biochemical; settings: read-out: IC50 mTOR
# [1] = tested on: human breast MDA-MB-361 tumor cell line; test: In vitro cell culture growth assay (MTS), MDA-MB-361; format: cell-based; settings: Homo sapiens, MTS cell growth assay, three days after drug treatment, MDA-MB-361 cells, read-out: IC50 MDA-MB-361
# [2] = tested on: human prostate PC3-mm2 tumor cell line; test: In vitro cell culture growth assay (MTS), PC3-mm2; format: cell-based; settings: Homo sapiens, PC3MM2, 72 h, MTS cell growth assay, three days after drug treatment, PC3-mm2 cells; read-out: IC50 PC3-mm2
# PI3K-α = PI3K-α (Homo sapiens, UniProt P42336); test: PI3K-alpha fluorescence polarization assay; settings: read-out: IC50 PI3Kα
# Chain of PI3K-α (P42336 whole entry, species assumed): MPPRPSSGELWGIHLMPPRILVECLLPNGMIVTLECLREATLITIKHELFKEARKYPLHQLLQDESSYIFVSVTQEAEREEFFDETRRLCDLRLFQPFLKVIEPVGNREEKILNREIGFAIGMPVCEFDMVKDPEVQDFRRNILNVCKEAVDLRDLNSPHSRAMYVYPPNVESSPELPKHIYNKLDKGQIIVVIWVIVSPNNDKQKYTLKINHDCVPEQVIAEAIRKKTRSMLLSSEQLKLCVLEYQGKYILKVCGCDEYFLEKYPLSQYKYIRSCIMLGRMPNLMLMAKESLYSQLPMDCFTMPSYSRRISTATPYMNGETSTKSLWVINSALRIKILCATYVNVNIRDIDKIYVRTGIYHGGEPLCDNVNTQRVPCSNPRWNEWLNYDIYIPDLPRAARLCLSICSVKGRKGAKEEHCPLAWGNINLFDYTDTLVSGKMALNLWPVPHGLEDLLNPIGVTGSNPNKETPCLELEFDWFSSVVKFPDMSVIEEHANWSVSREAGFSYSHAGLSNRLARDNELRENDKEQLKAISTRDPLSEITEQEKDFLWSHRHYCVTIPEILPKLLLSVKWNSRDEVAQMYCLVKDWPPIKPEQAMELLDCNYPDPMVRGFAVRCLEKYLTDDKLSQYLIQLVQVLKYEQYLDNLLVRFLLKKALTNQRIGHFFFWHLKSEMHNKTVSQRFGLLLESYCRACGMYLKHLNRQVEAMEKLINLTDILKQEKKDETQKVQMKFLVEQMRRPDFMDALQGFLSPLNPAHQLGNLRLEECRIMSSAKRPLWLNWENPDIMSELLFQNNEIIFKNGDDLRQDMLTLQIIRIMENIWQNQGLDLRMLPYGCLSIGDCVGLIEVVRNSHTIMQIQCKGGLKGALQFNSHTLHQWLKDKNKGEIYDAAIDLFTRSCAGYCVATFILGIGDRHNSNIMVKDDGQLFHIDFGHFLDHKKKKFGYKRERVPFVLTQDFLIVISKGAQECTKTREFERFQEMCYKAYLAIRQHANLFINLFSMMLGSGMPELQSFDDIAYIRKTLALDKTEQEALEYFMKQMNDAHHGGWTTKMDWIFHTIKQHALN
# Chain of PI3K-α (P27986 whole entry partner, species assumed): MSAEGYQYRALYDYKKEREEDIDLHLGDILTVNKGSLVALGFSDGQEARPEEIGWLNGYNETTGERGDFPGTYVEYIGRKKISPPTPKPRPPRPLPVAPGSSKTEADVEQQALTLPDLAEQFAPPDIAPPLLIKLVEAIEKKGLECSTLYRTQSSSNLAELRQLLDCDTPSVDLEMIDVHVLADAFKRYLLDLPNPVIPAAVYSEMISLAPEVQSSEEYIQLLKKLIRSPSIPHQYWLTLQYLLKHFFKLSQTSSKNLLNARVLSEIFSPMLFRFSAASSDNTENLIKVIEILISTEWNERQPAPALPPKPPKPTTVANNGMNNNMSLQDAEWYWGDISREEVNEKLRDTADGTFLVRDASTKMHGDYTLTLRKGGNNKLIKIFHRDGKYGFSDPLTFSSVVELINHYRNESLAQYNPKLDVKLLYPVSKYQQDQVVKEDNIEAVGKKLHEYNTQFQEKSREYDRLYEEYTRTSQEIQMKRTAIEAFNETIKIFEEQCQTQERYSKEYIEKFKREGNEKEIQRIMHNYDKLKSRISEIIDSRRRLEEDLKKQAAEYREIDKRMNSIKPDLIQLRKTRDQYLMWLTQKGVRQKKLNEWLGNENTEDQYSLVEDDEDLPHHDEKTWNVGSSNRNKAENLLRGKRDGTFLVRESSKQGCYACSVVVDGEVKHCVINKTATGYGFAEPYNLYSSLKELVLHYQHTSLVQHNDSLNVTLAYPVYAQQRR
# PI3K-γ = PI3K-γ (Homo sapiens, UniProt P48736); test: PI3K-gamma fluorescence polarization assay; settings: read-out: IC50 PI3Kγ
# Chain of PI3K-γ (P48736 whole entry, species assumed): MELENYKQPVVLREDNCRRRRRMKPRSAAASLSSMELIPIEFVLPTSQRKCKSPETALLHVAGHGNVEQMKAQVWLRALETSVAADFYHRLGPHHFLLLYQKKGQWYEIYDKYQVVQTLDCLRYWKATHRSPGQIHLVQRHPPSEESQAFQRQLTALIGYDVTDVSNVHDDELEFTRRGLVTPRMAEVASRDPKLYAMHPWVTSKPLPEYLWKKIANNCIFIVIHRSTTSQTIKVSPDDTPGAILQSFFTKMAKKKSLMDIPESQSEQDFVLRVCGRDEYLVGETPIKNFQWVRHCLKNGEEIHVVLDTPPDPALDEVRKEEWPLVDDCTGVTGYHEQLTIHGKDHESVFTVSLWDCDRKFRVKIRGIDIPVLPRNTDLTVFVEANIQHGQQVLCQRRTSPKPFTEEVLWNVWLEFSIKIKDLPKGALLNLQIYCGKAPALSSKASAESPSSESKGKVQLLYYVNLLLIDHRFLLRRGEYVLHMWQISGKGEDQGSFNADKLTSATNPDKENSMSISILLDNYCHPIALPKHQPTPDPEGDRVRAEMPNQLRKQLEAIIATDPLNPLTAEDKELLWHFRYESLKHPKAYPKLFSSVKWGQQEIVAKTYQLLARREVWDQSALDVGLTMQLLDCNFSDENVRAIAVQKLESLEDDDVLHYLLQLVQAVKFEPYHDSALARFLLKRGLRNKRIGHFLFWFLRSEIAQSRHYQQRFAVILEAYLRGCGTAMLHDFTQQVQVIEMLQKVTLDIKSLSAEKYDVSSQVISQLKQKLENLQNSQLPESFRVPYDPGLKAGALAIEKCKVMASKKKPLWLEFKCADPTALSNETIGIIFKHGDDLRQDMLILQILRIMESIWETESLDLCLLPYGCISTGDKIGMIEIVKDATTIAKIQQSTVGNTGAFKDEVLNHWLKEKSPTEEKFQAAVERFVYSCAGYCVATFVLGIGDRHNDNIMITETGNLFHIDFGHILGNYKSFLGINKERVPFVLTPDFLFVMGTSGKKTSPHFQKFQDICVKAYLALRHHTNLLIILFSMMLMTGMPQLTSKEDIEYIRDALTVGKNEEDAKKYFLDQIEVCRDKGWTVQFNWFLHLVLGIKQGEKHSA
# Chain of Human mTOR (FLAG-TOR) (P42345 1360-2549 limits assumed): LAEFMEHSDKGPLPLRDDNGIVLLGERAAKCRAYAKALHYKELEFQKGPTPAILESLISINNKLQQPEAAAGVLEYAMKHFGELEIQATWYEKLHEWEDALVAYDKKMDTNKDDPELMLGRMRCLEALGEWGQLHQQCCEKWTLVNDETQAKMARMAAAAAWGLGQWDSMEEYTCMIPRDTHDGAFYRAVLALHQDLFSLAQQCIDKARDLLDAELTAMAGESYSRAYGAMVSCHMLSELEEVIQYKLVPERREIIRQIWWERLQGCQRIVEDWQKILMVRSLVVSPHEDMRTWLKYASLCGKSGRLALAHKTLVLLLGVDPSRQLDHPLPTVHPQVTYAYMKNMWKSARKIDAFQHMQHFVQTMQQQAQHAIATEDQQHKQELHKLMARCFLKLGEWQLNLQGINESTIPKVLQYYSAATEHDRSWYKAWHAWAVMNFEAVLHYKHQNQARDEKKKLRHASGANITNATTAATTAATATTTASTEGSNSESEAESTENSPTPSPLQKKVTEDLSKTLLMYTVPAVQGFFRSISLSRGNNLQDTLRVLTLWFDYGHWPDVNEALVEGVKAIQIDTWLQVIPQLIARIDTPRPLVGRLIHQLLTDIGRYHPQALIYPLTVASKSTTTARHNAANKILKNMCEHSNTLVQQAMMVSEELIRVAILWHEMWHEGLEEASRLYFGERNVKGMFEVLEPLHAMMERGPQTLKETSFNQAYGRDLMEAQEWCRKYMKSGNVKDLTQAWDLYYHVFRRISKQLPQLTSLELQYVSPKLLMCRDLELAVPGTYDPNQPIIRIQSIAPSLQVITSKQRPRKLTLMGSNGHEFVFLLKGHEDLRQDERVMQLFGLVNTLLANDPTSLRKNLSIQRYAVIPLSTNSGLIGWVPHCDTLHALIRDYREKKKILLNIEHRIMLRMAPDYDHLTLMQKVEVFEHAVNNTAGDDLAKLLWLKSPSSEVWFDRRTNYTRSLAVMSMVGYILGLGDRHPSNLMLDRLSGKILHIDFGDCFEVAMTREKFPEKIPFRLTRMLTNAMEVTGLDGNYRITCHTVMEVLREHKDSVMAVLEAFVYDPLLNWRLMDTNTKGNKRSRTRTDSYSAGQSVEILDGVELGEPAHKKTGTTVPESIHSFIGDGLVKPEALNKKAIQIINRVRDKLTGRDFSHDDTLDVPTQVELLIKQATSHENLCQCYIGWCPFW
IC50 (Human mTOR (FLAG-TOR)) [µM],"IC50 ([1]; MDA-MB-361, 72 h) [µM]",IC50 [2] [µM],IC50 (PI3K-α) [µM],IC50 (PI3K-γ) [µM],IC50 ([1]; 72 h) [µM],Structure (SMILES)
0.017,0.964,1.76,0.028,0.057,–,"O=C(Nc1ccc(C(=O)O)cc1)Nc1ccc(-c2nc(-c3ccccc3)nc(N3CCOCC3)n2)cc1 [Example 541, 4-({[4-(4-morpholin-4-yl-6-phenyl-1,3,5-triazin-2-yl)phenyl]carbamoyl}amino)benzoic acid]"
0.0215,–,0.569,0.008,0.067,0.281,"Cc1ccc(-c2nc(-c3ccc(NC(=O)Nc4ccc(C(=O)NCCN(C)C)cc4)cc3)nc(N3CCOCC3)n2)cc1 [Example 542, N-[2-(dimethylamino)ethyl]-4-[({4-[4-(4-methylphenyl)-6-morpholin-4-yl-1,3,5-triazin-2-yl]phenyl}carbamoyl)amino]benzamide]"
0.042,< 0.031,0.262,0.0035,0.0155,–,"CN1CCN(C(=O)c2ccc(NC(=O)Nc3ccc(-c4nc(-c5ccccc5)nc(N5CCOCC5)n4)cc3)cc2)CC1 [Example 543, 1-{4-[(4-methylpiperazin-1-yl)carbonyl]phenyl}-3-[4-(4-morpholin-4-yl-6-phenyl-1,3,5-triazin-2-yl)phenyl]urea]"
0.0109,–,0.219,0.004,0.017,0.03,"CN(C)CCNC(=O)c1ccc(NC(=O)Nc2ccc(-c3nc(-c4ccccc4)nc(N4CCOCC4)n3)cc2)cc1 [Example 545, N-[2-(dimethylamino)ethyl]-4-({[4-(4-morpholin-4-yl-6-phenyl-1,3,5-triazin-2-yl)phenyl]carbamoyl}amino)benzamide]"
0.000225,–,0.025,0.0035,0.0735,0.007,"C[C@H]1COCCN1c1nc(-c2ccc(NC(=O)Nc3ccc(C(=O)NCCN(C)C)cc3)cc2)nc(N2CCOC[C@@H]2C)n1 [Example 546, 4-{[(4-{4,6-bis[(3S)-3-methylmorpholin-4-yl]-1,3,5-triazin-2-yl}phenyl)carbamoyl]amino}-N-[2-(dimethylamino)ethyl]benzamide]"
0.00775,0.068,0.197,0.011,0.07,–,"Cc1ccc(-c2nc(-c3ccc(NC(=O)Nc4ccc(C(=O)N5CCN(C(C)C)CC5)cc4)cc3)nc(N3CCOCC3)n2)cc1 [Example 547, 1-{4-[(4-isopropylpiperazin-1-yl)carbonyl]phenyl}-3-{4-[4-(4-methylphenyl)-6-morpholin-4-yl-1,3,5-triazin-2-yl]phenyl}urea]"
0.00975,–,0.869,0.04,0.387,0.524,"Cc1ccc(-c2nc(-c3ccc(NC(=O)Nc4ccc(C(=O)NCCN5CCCC5)cc4)cc3)nc(N3CCOCC3)n2)cc1 [Example 548, 4-[({4-[4-(4-methylphenyl)-6-morpholin-4-yl-1,3,5-triazin-2-yl]phenyl}carbamoyl)amino]-N-(2-pyrrolidin-1-ylethyl)benzamide]"
0.0124,–,0.711,0.047,0.374,0.315,"COCCNC(=O)c1ccc(NC(=O)Nc2ccc(-c3nc(-c4ccc(C)cc4)nc(N4CCOCC4)n3)cc2)cc1 [Example 550, N-(2-methoxyethyl)-4-[({4-[4-(4-methylphenyl)-6-morpholin-4-yl-1,3,5-triazin-2-yl]phenyl}carbamoyl)amino]benzamide]"
0.01,–,0.27,0.024,0.118,0.106,"COCCNC(=O)c1ccc(NC(=O)Nc2ccc(-c3nc(-c4ccccc4)nc(N4CCOCC4)n3)cc2)cc1 [Example 551, N-(2-methoxyethyl)-4-({[4-(4-morpholin-4-yl-6-phenyl-1,3,5-triazin-2-yl)phenyl]carbamoyl}amino)benzamide]"
